In a melting point compilation (Tetko et al.; mined from patent text by program, amines drawn as free bases though some values may be those of a salt):

melting point	SMILES
140 to 142 °C	CNc1nc(-c2cccc(-c3ccc(SC)cc3)c2)c2cc(OC)c(OC)cc2n1
132 to 133 °C	c1ccc(CN2CCOc3cccc4nc5c(c2c34)CCCC5)cc1
65 to 67 °C	CCCCCCCCCCCCCCCO/N=C(\CCCCCCCCCCCCCCC)CC(=O)O
83 to 84 °C	CC(C)(C)C(=O)C=Cc1ccc(Cl)cc1
69 °C	CON(C(=Cc1ccccc1)C(N)=O)c1ccccc1
103 to 104 °C	O=Cc1nccc(OCc2ccccc2)c1OCc1ccccc1
162 to 164 °C	COc1cc(Nc2nccc(-c3cccc(NC(C)=O)c3)n2)cc(OC)c1OC
164 to 166 °C	COc1cc2c(c(OC(C)=O)c1)C1CCC3(C)C(=O)C(Cl)CC3C1CC2 (stereo not given)
114 to 115 °C	CCCOCCOc1ccc(-c2ccc3c(c2)C=C(C(=O)O)CCN3CCCOC)cc1
144 to 148 °C	CNC1=NS(=O)(=O)N=C1NCCSCc1csc(CN(C)C)n1
257 to 259 °C	Cc1nnc2cc(-c3ccccc3Cl)c3cc(Cl)ccc3n12
170 °C	CCO[C@H]1c2ccc3c(nc(C)n3C)c2N[C@H](c2ccccc2)[C@H]1O
190 to 195 °C	CCCCOC(=O)c1cc2c3ccccc3[nH]c(=O)n2n1
45 to 47 °C	COc1ccc(C(F)(F)F)cc1NC(=N)Nc1cccc(C(F)(F)F)c1
152 °C	Cc1cc(O)nc(Br)c1
172 to 173 °C	COc1ccc2c(c1)c(CC(=O)OCC(=O)O)c(C)n2C(=O)c1ccccc1F
158 to 160 °C	CCOC(=O)Cn1c(C(=O)NCc2nncn2-c2sc(CC)cc2C(=O)c2ccccc2Cl)cc2ccccc21
> 268 °C	COCOc1ccc(-c2ncc3ncc(Cl)cc3n2)cc1
134 to 136 °C	Cc1cc(-n2nc(C(F)(F)F)cc2-c2ccc(S(C)(=O)=O)cc2)ccc1F
92 to 94 °C	OC1CCc2cc3c(cc21)OCO3 (stereo not given)
189 to 191 °C	CCCc1cc(O)ccc1-c1noc2cc(O)ccc12
145 to 147 °C	COc1cc2c(c3c1OC(C)(C)C3)C(c1cccc(N3CCNS3)c1)=NC(C)(C)C2
119 to 120 °C	COc1ccc(O[C@H](C)C(=O)O)c(C(=O)c2ccc(OCc3nc(-c4ccccc4)oc3C)cc2)c1
214 to 216 °C	CSc1ccccc1N1CCN(Cc2nc3ccccc3[nH]2)CC1

melting point	SMILES
169 to 171 °C	CCNC(=O)n1nc(Oc2c([N+](=O)[O-])cc([N+](=O)[O-])cc2C(F)(F)F)cc1C
85 to 88 °C	CN(C)C(=O)OCc1nc([N+](=O)[O-])c(C#N)n1C
246 to 252 °C	O=c1[nH]nc2c3c(cccc13)Oc1ccc(COP(=O)(O)O)cc1-2
59 to 61 °C	COc1cc(C=CC(=O)OC2CC3C(O)C(OC(=O)C=Cc4cc(OC)c(OC)c(OC)c4)C(C2)N3C)cc(OC)c1OC (stereo not given)
86 to 88 °C	CC(=O)C(=Cc1ccc(C#N)cc1)C(C)=O
150 to 152 °C	CN(CC1Nc2cc(Cl)c(S(N)(=O)=O)cc2S(=O)(=O)N1)C(=O)CBr (stereo not given)
128 to 130 °C	COC(=O)c1cc(SC(=O)N(C)C)cc(SC(=O)N(C)C)c1
222 to 224 °C	CCCCc1nc(CO)c(C(N)=O)n1Cc1ccc(-c2ccccc2C(=O)OC(C)(C)C)cc1
125 °C	CC(C)(C(N)=O)c1ccc(Cl)cc1
101 to 103 °C	CCN=C(NCc1ccccc1)NN=Cc1c(Cl)cccc1Cl
127 to 128 °C	COCn1nnc(NC(=O)C(c2ccccc2)c2ccccc2)n1
179 to 180 °C	COc1ccc(Cc2nc3cccc(NCc4ncc[nH]4)c3o2)cc1OC1CCCC1
124 to 128 °C	Cc1cn(C)c(C)c1-c1ccnc(Nc2ccc(F)cc2)n1
138 to 140 °C	Clc1ccc(C2=CCc3cc(Br)cnc3O2)cc1Cl
165 to 166 °C	CSC(=NC(=O)OCc1ccccc1)NNC(=O)NC(=O)OCc1ccccc1
264 °C	Cc1cc(-c2ccc(C(F)(F)F)cc2)nc(-c2ccnc(-c3ccc(S(N)(=O)=O)s3)c2)n1
242 °C	Fc1cccc(COc2ccc(Nc3ncnc4cc(C#Cc5ccccn5)sc34)cc2Cl)c1
130 to 131 °C	Cc1oc(-c2ccccc2)nc1COc1ccc(COc2ccc(OCc3ccccc3)cc2CC#N)cc1
292 to 294 °C	CNC(=O)c1ccccc1Nc1nc(Nc2ccc3c(c2)N(C)C(=O)CCC3)ncc1Cl
189 to 192 °C	O=C(NC(=O)c1cccnc1Cl)Nc1cc(Cl)c(OC(F)(F)C(Cl)Cl)c(Cl)c1
192 to 193 °C	CONC(=N)c1nc(Cl)c(-c2c(F)cc(F)cc2F)c(N2CCCO2)n1
88 to 89 °C	CS(=O)(=O)Nc1ccc(CCCC(=O)OCc2ccccc2)cc1
> 300 °C	COc1ccc(-n2cnc3c(O)nc4ccccc4c32)cc1
104 to 105 °C	CCCOc1ccccc1-c1ncc(C(=O)N(C)C)c(=O)[nH]1

melting point	SMILES
176 to 177 °C	CCCc1nc2c(N)nc3ccccc3c2n1CCOCCCS(=O)(=O)C(C)C
151 °C	Cc1cc2cc(CN3CCCCCC3)cnc2cc1NC(=O)c1ccc(-c2ccccc2)cc1F
237 to 238 °C	N#CNc1nnc(-c2ccc3occ(-c4cccc(OC(F)(F)F)c4)c3c2)o1
191 to 199 °C	COc1cc2sc(C(=O)Cl)c(Cl)c2cc1OC
104 to 106 °C	N#CCCCCCCn1c(-c2ccccc2)nc(-c2ccccc2)c1-c1ccccc1
139 to 148 °C	CCCCCNc1nc(NCC(C)C)c2ncn(CC(=O)O)c2n1
78 to 79 °C	CCC(CC)n1nnc2c(Cl)nc(C)cc21
62 to 64 °C	CCN(CC)S(=O)(=O)c1cc(Cl)cc(O)c1O
171 to 174 °C	O=C(O)Cc1ccc(OCc2ccccc2C(=O)O)cc1
102 °C	CCCCCCCCCCCCCCCCC(=O)n1cc(F)c(=O)[nH]c1=O
126 to 127 °C	CCCCCCOc1cc(-c2cccc([N+](=O)[O-])c2)c(OCCCCCC)cc1-c1cccc([N+](=O)[O-])c1
144 to 145 °C	C=CCCN1CCN(c2nc(C)c(C(=O)NCc3cccnc3)s2)C1=O
133 to 134 °C	C=CCCn1c(C(=O)c2cc(C)cc(C#N)c2)c(C(C)C)c(=O)[nH]c1=O
261 to 264 °C	CS(=O)(=O)c1ccc(C(Cc2ccc(F)cc2)C(=O)Nc2nc3ncccc3o2)cc1 (stereo not given)
99 to 107 °C	CC(C)C(C)(C#N)N1C(=O)c2ccc3ccsc3c2C1=O (stereo not given)
237 to 240 °C	O=c1c2c([nH]n1-c1ccc(Cl)cc1)-c1cc(Cl)ccc1SC2
49 to 51 °C	NN1CCC(Cc2ccc(Cl)cc2)CC1
139 °C	O=[N+]([O-])C1=Cc2cc3c(cc2OC1)OCO3
136 to 137 °C	OCc1cn(-c2ccc3ccccc3n2)cn1
101 to 103 °C	CCCCNc1nc(N2CC3CCC(CC3)C2)nc(N2CC3CCC(CC3)C2)n1
153 to 155 °C	Cc1c(NC(=O)c2ccc(-c3ccc(F)cc3)cc2)ccc2cc(CN3CCC3)cnc12
162 to 164 °C	CC(C)(C)c1ccc(-c2ccc(C(=O)N=[N+]=[N-])s2)cc1
85 to 87 °C	Clc1ccc(Sc2ccc(-c3ccccc3)s2)cc1
222 to 225 °C	COc1cc(Nc2nc3cccc(-c4ccc(NS(C)(=O)=O)cc4)c3o2)cc(OC)c1OC

melting point	SMILES
128 to 130 °C	COC(=O)c1ccc(CN([C@@H](CO)Cc2ccccc2)S(=O)(=O)c2ccc(Cl)cc2)cc1
175 to 184 °C	COc1ccc(Nc2ccc(Nc3ccnc4cc(-c5ccc(OC)nc5)sc34)cc2)cc1
164 °C	CN(C(=O)[C@H]1C[C@H](C(=O)O)[C@@H](c2ccccc2F)N1C(=O)CNC(=O)Nc1cccc(CC(=O)O)c1)c1ccccc1 (racemic)
145 to 147 °C	Cc1cc(C2=NNC(=O)CC2)ccc1CCCCN
137 to 140 °C	CC(C)(C)C(=O)Nc1ccncc1
132 to 134 °C	OCc1cc(NCCCCCCBr)ccc1O
116 to 118 °C	C=CCCCc1ccc(C=CC(=O)c2ccc(OCC=C(C)C)cc2)c(OCC(=O)O)c1
143 to 144 °C	CCOC(=O)c1cccc(-c2ccc(Cl)c3cc(CBr)sc23)c1
44 °C	COC(C)(C)c1cc(C(C)(C)OC)cc(C(C)(C)OC)c1
115 to 118 °C	O=S(=O)(N[C@H](CO)C1CCCCC1)c1ccc(Cl)cc1
153 to 154 °C	O=C(Nc1ccccc1C(F)(F)F)C1CCCCC1
208 to 210 °C	C=C(C)C(=O)OCCNC(=O)Nc1ccc(C(=O)O)c(O)c1
144 to 146 °C	CC(C)(C)OC(=O)Nc1cc(N2CCC(OC3CCCCO3)CC2)c(-c2ccc(F)cc2)cc1[N+](=O)[O-] (racemic)
150 to 153 °C	C[C@H](NC(=O)OC(C)(C)C)C(=O)NCc1cccc(Nc2n[nH]c3ncnc(Nc4cccc(Cl)c4)c23)c1
233 to 235 °C	CCCCCCCNc1nc(C)c(O)c(=O)[nH]1
125 to 128 °C	CCOC(=O)N1CCN(C(=O)Oc2ccc([N+](=O)[O-])cc2)CC1
194 to 195 °C	Cc1ccc(-c2cc(Br)c3c(c2)CCC(=O)N3)c(C)n1
174 °C	Cc1nccn2c(-c3ccnc(NCC(C)(C)CO)n3)c(-c3ccc(F)cc3F)nc12
204 to 206 °C	NNC(=S)C12CC3CC(CC(C3)C1)C2
144 °C	Cc1cc(Cl)c(O)cc1N
186 to 188 °C	Cc1ncc(CN2CCc3cc(-c4ccccc4)ccc3C2)c(N)n1
107 to 108 °C	CCCc1c(OCCCCCCc2ccc(OC)c(OC)c2Cl)ccc(C(=O)O)c1O

SMILES	melting point
N#Cc1ccc(Nn2cnnc2)cc1Br	234 to 236 °C
CCOC(=O)CN1C(=O)N(c2ccc(C#N)c(C(F)(F)F)c2)C(=O)C1(C)C	152 °C
O=C(NCc1ccc(Cl)cc1)c1cn(CCCc2ccccc2)c2sc(CN3CCOCC3)cc2c1=O	169 to 171 °C
CNC(=O)c1ccc(N2CCNCC2)cc1	154 to 156 °C
N#CC1(Nc2ccccc2)CCN([C@@H]2CC[C@H]3CCCc4cccc2c43)CC1 (racemic)	142 °C
Brc1ccc(OC2CCN(CCc3c[nH]c4ccccc34)CC2)cc1	132 to 134 °C
